From article PMC10689823, “Discovery of a Drug-like, Natural Product-Inspired DCAF11 Ligand Chemotype” (Nature Communications, 2023)
Several values for one entry are separate records, joined by “and”; a condition that tells them apart may be missing. Identical values can stand only once.

Assays:
BRD2 = assay: In-Cell Western for BRD2 levels in Hep G2 cells; type: cell-based; settings: then 9 (10 μM, 4 h)
Method: Hep G2 cells were seeded in 96-well plates and incubated for 24 h. Compounds were added for the indicated time at the indicated concentration. Cells were then washed once with PBS and fixed with 4% paraformaldehyde for 30 min at room temperature. The fixed cells were permeabilized with 0.5 % Triton-X100 for 15 min followed by block with Intercept® Blocking Buffer (LI-COR Biosciences, 927-70001) for 1 h at room temperature. Primary antibodies for BRD2 (1:800) and Vinculin (1:2000) were diluted with LI-COR buffer and incubated with the cells at 4 °C overnight. Cells were washed with PBS-T, and the secondary antibodies conjugated to IRDye (1:1000, LI-COR Biosciences) were added to the cells for 1 h at room temperature. After washing the cells, the signal was recorded with the Odyssey® CLx Infrared Imaging System (LI-COR Biosciences) and the protein levels were analyzed by Image Studio (LI-COR Biosciences). BRD2 protein levels were normalized to the levels of reference protein vinculin.

SIRT1 = target: T1, SIRT1 (Homo sapiens, UniProt Q96EB6); assay: SIRT activity assay SIRT1; type: biochemical; settings: SIRT1 activity in presence of 3 µM compound 42
T1 construct: purchased BPS Bioscience 50081 (assay kit)
Method: (§1) In vitro enzymatic SIRT assays were performed by BPS Bioscience for SIRT1, SIRT2, SIRT3, SIRT5 and SIRT6 using the respective SIRT Fluorogenic Assay Kit (BPS Bioscience, catalog numbers 50081, 50087, 50088, 50085 and 50022). The compound was pre-incubated in for 30 min at room temperature in a mixture containing SIRT assay buffer, 5 μg BSA, SIRT enzyme. Afterwards, the enzymatic reaction was initiated by the addition of SIRT substrate to a final concentration of 10 μM. The enzymatic reaction proceeded for 30 min at 37 °C followed by the addition of 2 x SIRT Developer and incubation at room temperature for 15 min. Fluorescence intensity was measured at an ex/em 360/460 nm using a Tecan Infinite M1000 microplate reader.

SIRT2 = target: T2, SIRT2 (Homo sapiens, UniProt Q8IXJ6); assay: SIRT activity assay SIRT2; type: biochemical; settings: SIRT2 activity in presence of 3 µM compound 42
T2 construct: purchased BPS Bioscience 50087 (assay kit)
Method: as §1

SIRT3 = target: T3, SIRT3 (Homo sapiens, UniProt Q9NTG7); assay: SIRT activity assay SIRT3; type: biochemical; settings: SIRT3 activity in presence of 3 µM compound 42
T3 construct: purchased BPS Bioscience 50088 (assay kit)
Method: as §1

SIRT5 = target: T4, SIRT5 (Homo sapiens, UniProt Q9NXA8); assay: SIRT activity assay SIRT5; type: biochemical; settings: SIRT5 activity in presence of 3 µM compound 42
T4 construct: purchased BPS Bioscience 50085 (assay kit)
Method: as §1

SIRT6 = target: T5, SIRT6 (Homo sapiens, UniProt Q8N6T7); assay: SIRT activity assay SIRT6; type: biochemical; settings: SIRT6 activity in presence of 3 µM compound 42
T5 construct: purchased BPS Bioscience 50022 (assay kit)
Method: as §1

[1] = system: wildtype and mutant 482 kinases; assay: Kinase profiling (SelectScreen); type: biochemical; settings: 10 µM; panel of 482 wildtype and mutant kinases
Method: Compound 42 was profiled in duplicate at 10 µM against wildtype and mutant 482 kinases using the SelectScreen Kinase profiling services (ThermoFisher Scientific, USA) using enzymatic assays (Z’-Lyte and Adapta technology) or binding assays (LanthaScreen Eu kinase binding assays) (see https://www.thermofisher.com/de/de/home/products-and-services/services/custom-services/screening-and-profiling-services/selectscreen-profiling-service/selectscreen-kinase-profiling-service.html).

T4 sequence (Q9NXA8 37-310): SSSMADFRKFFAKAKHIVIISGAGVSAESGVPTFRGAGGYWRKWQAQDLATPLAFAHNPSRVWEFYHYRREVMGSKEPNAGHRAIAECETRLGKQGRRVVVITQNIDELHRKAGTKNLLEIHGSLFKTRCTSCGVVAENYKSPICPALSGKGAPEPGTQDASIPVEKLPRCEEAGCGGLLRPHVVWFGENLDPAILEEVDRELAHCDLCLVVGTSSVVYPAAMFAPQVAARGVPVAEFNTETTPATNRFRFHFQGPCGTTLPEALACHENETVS
T1 sequence (Q96EB6 whole entry): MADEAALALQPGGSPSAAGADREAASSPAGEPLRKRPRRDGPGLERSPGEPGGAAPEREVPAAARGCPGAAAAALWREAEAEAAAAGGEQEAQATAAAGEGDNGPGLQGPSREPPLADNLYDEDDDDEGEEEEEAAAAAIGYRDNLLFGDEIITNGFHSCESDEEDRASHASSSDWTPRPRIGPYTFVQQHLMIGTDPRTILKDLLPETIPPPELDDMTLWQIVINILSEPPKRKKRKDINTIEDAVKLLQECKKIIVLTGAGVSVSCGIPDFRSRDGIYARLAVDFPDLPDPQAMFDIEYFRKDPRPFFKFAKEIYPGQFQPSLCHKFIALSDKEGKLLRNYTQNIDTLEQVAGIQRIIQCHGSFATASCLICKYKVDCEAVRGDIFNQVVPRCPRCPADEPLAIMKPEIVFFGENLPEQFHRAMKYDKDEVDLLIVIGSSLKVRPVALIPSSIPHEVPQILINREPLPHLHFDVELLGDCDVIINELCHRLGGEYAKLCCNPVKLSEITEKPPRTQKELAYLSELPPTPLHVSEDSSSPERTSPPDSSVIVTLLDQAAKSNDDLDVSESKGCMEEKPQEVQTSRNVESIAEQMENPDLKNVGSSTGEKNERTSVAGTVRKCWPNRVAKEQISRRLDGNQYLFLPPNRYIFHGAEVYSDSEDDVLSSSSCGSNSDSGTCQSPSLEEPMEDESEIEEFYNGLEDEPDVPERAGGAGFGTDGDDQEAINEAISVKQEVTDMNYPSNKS
T5 sequence (Q8N6T7 whole entry): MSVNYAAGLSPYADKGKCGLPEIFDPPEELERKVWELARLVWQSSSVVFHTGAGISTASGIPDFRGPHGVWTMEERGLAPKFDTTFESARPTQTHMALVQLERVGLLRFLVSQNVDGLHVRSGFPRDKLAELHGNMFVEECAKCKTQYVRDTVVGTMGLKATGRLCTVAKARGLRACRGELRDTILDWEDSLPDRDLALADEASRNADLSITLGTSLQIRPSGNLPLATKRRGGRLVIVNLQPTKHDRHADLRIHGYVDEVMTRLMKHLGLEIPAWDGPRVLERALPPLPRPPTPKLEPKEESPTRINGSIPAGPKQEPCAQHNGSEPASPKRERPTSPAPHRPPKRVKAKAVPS
T2 sequence (Q8IXJ6 whole entry): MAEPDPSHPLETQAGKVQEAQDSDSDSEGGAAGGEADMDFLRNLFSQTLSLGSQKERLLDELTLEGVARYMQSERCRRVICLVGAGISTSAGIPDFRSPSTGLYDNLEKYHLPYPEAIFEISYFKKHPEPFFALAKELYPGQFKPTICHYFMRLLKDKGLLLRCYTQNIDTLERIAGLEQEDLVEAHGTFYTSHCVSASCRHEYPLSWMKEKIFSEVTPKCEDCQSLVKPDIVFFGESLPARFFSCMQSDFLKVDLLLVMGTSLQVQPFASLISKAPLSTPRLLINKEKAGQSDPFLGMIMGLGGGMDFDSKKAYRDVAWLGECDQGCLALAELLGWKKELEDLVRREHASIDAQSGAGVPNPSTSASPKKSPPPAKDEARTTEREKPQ
T3 sequence (Q9NTG7 whole entry): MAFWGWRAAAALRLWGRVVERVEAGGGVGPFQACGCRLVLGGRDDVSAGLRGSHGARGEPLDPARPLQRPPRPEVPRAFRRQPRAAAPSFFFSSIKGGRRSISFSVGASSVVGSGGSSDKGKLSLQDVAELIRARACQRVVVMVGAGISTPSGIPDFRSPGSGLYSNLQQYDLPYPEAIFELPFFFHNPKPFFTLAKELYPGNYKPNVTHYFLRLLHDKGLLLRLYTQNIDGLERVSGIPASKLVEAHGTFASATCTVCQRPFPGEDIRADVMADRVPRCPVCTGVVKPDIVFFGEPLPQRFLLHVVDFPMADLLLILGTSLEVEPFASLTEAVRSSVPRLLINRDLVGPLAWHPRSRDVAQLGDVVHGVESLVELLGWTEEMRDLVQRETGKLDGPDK

O=C1Nc2ccc(Br)cc2C1=Cc1cc(Br)c(OCCO)c(Br)c1 [Compound 42]
BRD2/Vinculin intensity (relative to control group) (BRD2; Hep G2 cells, pretreated with compound at 30 μM 1 h, single repeats, Fig. 4h): 46.6052 and 52.1075 and 59.9094 and 63.5387
Value (Mean ± SD): Relative BRD2 levels remaining in Hep G2 cells after treatment with compounds followed by treatment with 9, with DMSO control for normalization (BRD2; qualitative ICW assay, pretreated at 30 μM 1 h, Supplementary Table 1): 55.54 ± 6.61
Activity [%] (N=1) (SIRT1): 93%
Activity [%] (N=2) (SIRT1): 97%
Activity [%] (N=1) (SIRT2): 104%
Activity [%] (N=2) (SIRT2): 111%
Activity [%] (N=1) (SIRT3): 67%
Activity [%] (N=2) (SIRT3): 67%
Activity [%] (N=1) (SIRT5): 95%
Activity [%] (N=2) (SIRT5): 98%
Activity [%] (N=1) (SIRT6): 87%
Activity [%] (N=2) (SIRT6): 90%
number of wildtype kinases inhibited by more than 50 % [1]: seven
